The text below walks through data of ChEMBL document CHEMBL3507680, “University of Dundee, Gates Library screen for HepG2 cell viability”.

The nature of the data set: Human HepG2 cell viability assay in 384 well format. The class given is toxicity, cell-based. On the set-up: dose 125 nL, time 70.5 hour; concentration not given beside the values. The settings on record: HepG2 cells, read-out: Inhibition.

For `COc1nonc1NCn1nc(C)cc1C`, the cytotoxicity at 70.5 h was found to be 51.2%.

With `Cc1c(CN2CCCCC2)c(O)n(CCCO)c(=O)c1C#N`, the cytotoxicity at 70.5 h was -4.27%.

`COCCN(CCOC)Cc1c(C)nc2ccccc2c1O`: the cytotoxicity at 70.5 h came to 5.31%.

As to `COCC(=O)N1CCN(S(=O)(=O)c2ccccc2)[C@@H](C(=O)OC)C1`, the cytotoxicity at 70.5 h is -5.08%.

Regarding `NC(=O)CN1C(=O)CO[C@H]2CN(Cc3ccccc3)C[C@H]21`, the cytotoxicity at 70.5 h is -0.937%.

As for `CN1CCC(N2CCOC[C@H]2c2nc(C(C)(C)C)c[nH]2)CC1`, the cytotoxicity at 70.5 h amounted to 0.765%.

For `O[C@@H]1C[C@@H](c2nc(-c3ccccc3)no2)N(Cc2ccncc2)C1`, the cytotoxicity at 70.5 h is -1.52%.

Consider `CC1=C[C@@H](CN2CCN(C)CC2)[C@H](C(C)C)C[C@H]1Cc1nnc(C)o1`, for which the cytotoxicity at 70.5 h is -9.92%.

Regarding `CN(C)Cc1cc(CC2(NCc3ccc(C#N)cc3)COC2)no1`, the cytotoxicity at 70.5 h was -6.01%.

As to `CCNC(=O)N1C[C@@H]2OCC(=O)N(C)[C@@H]2C1`, the cytotoxicity at 70.5 h worked out at 7.93%.

Consider `CC(C)(C)c1c[nH]c([C@@H]2COCCN2C2CCNCC2)n1`, for which the cytotoxicity at 70.5 h is -0.308%.

Take `OCCc1cc(CC2(NCc3ccc(C(F)(F)F)cc3)COC2)no1`: the cytotoxicity at 70.5 h is -6.19%.

As for `CCN(CC)CC[C@H]1CN(C(=O)c2ccc(F)cc2)CC[C@H]1CC(=O)O`, the cytotoxicity at 70.5 h was -2.08%.

With `CC(C)NC(=O)[C@@H]1Cc2[nH]cnc2CN1CCCc1ccccc1`, the cytotoxicity at 70.5 h worked out at 6.69%.

Turning to `CC1(C)[C@H](Cc2cc(CN3CCCCC3)on2)C[C@@H]1NS(C)(=O)=O`, the cytotoxicity at 70.5 h is -4.26%.

`O=C(Cc1ccccc1)NC[C@H]1Cn2ccnc2CO1`: the cytotoxicity at 70.5 h was determined as 5.13%.

In the case of `COc1ccc2c(c1)nc1n2[C@@H](CN(C2CCC2)C2CCC2)COC1`, the cytotoxicity at 70.5 h came to 1.4%.

On to `O[C@@H]1C[C@@H](c2nc(-c3cccnc3)no2)N(C2CCOCC2)C1`, for which the cytotoxicity at 70.5 h came out at 16.4%.

Turning to `CCNC(=O)N1C[C@@H]2OCC(=O)N(CC3CC3)[C@@H]2C1`, the cytotoxicity at 70.5 h is -3.79%.

Regarding `CCc1nc(C)c(C(=O)N[C@@H]2c3ccccc3C[C@@H]2O)o1`, the cytotoxicity at 70.5 h turned out to be 16%.

In the case of `Nc1nc2c(c(N3CCCC(CN4CCCC4=O)C3)n1)CCNCC2` (stereo not given), the cytotoxicity at 70.5 h is -5.58%.

As for `CC(C)(O)CCc1cccc(C(=O)N[C@H](C(N)=O)c2ccccc2)c1`, the cytotoxicity at 70.5 h is -11%.

Take `CC(=O)N[C@@H]1CN(Cc2ccc(F)cc2F)C[C@H]1c1ccc(C)o1`: the cytotoxicity at 70.5 h stood at 11.7%.

Consider `O=c1cc(-c2cccnc2)nc(-c2ccc(CN3CC[C@@H](O)C3)cc2)[nH]1`, for which the cytotoxicity at 70.5 h worked out at 12.1%.

For the compound `CCS(=O)(=O)c1ncc(CN(C)Cc2ccccc2OC)n1CCOC`, the cytotoxicity at 70.5 h was -5.74%.

For `CN(CCNc1ncc2c(n1)CCN2c1ccccc1)S(C)(=O)=O`, the cytotoxicity at 70.5 h is -9.7%.

In the case of `Cc1cnccc1N1CCCN(Cc2ccc(-c3cc[nH]n3)o2)CC1`, the cytotoxicity at 70.5 h was -5.27%.

With `CC(C)N1CCC2(CCCN(Cc3ccc(F)cc3)C2=O)C1` (stereo not given), the cytotoxicity at 70.5 h worked out at 27.4%.

For the compound `Cc1cc(CC(C)NC(=O)COc2ccc(F)cc2F)[nH]n1` (stereo not given), the cytotoxicity at 70.5 h was -5.3%.

Regarding `O=C(O)c1cc(-c2cn[nH]c2)cc(S(=O)(=O)N2CCSCC2)c1`, the cytotoxicity at 70.5 h was -4.23%.

With `Cc1nc(C)c(C)c(NCCSc2ccccn2)n1`, the cytotoxicity at 70.5 h was -6.54%.

Consider `CCCN1CCN(Cc2cc3cc(OCC)ccc3[nH]c2=O)CC1`, for which the cytotoxicity at 70.5 h is -6.17%.

For `Cc1ccc(-c2ccnc(N3CCC4(CC3)CNC(=O)O4)n2)c(C)n1`, the cytotoxicity at 70.5 h was -9.43%.

On to `Cc1nc(N2C[C@@H](CN3CCCCC3)[C@@H](CO)C2)c2sccc2n1`, for which the cytotoxicity at 70.5 h was determined as 8.31%.

In the case of `CS(=O)(=O)N[C@H]1CN(CCOCc2ccccc2)C[C@@H]1C1CC1`, the cytotoxicity at 70.5 h was -2.16%.

Regarding `O=C(c1cc[nH]n1)N1CCc2ccc(S(=O)(=O)N3CCOCC3)cc2C1`, the cytotoxicity at 70.5 h was 3.21%.

As for `Cc1cc(C)c2c(N(C)CC3CCN(CC(C)C)C3)ncnc2n1` (stereo not given), the cytotoxicity at 70.5 h was -2.13%.

For the compound `O=C(Nc1ccccc1Cl)N1CCN(CC2CC2)[C@@H]2CS(=O)(=O)C[C@@H]21`, the cytotoxicity at 70.5 h was 16.8%.

In the case of `CCC1CN(C(=O)c2ccccc2N2CCCC2)CCN1C(C)C` (stereo not given), the cytotoxicity at 70.5 h was -4.31%.

With `Cc1cc(N2CCN(Cc3ccc(-c4cc[nH]n4)o3)CC2)cc(C)n1`, the cytotoxicity at 70.5 h came out at 19.1%.

Take `COc1ccc(F)cc1C(C(=O)O)N1CCSCC1` (stereo not given): the cytotoxicity at 70.5 h was -7.69%.

On to `Cc1ccc([C@@H]2CN(S(=O)(=O)C(C)C)C[C@H]2N(C)C)cc1`, for which the cytotoxicity at 70.5 h was -12.5%.

`Cc1cccc(CN2CCN(Cc3ccccc3)CC(O)C2)n1` (stereo not given): the cytotoxicity at 70.5 h was -12.1%.

For `Cc1cnc(N2CCCC3(CCCN(C)C3)C2)nc1` (stereo not given), the cytotoxicity at 70.5 h is -0.385%.

For the compound `Cc1cc(C)c2nc(CN3CCCC(c4cc[nH]n4)C3)cc(O)c2c1` (stereo not given), the cytotoxicity at 70.5 h is -2.87%.

On to `Cc1[nH]c(=O)[nH]c(=O)c1CN1CCCC(CCc2ccccc2)C1` (stereo not given), for which the cytotoxicity at 70.5 h is -5.9%.

As to `O=C(c1cc(=O)[nH]c(=O)[nH]1)N1CCCCC1c1nc2cc(F)ccc2[nH]1` (stereo not given), the cytotoxicity at 70.5 h is -6.77%.

In the case of `CCn1ccnc1CN1CCCC(CO)(Cc2cccc(Cl)c2)C1` (stereo not given), the cytotoxicity at 70.5 h was -1.73%.

Take `CCC1CN(C(=O)c2ccc(=O)[nH]c2)CCC(=O)N1Cc1ccccc1` (stereo not given): the cytotoxicity at 70.5 h is -2.4%.

For `N#CCCSc1sc2c(O)cc(O)nc2c1C#N`, the cytotoxicity at 70.5 h came out at 13.6%.

As to `Cc1cc(C)n(NC(=O)c2ccccc2F)c(=O)c1`, the cytotoxicity at 70.5 h is 15.6%.

Turning to `Cc1cc(C)n(NC(=O)c2ccc(Cl)cc2Cl)c(=O)c1`, the cytotoxicity at 70.5 h is -16.4%.

`CCC(NC(=O)c1nn(C)cc1C(=O)O)c1ccc(C)cc1C` (stereo not given): the cytotoxicity at 70.5 h is -6.11%.

In the case of `CCCSc1ncc(Cl)c(C(=O)NC(CCSC)C(=O)O)n1` (stereo not given), the cytotoxicity at 70.5 h was -7.81%.

Regarding `Cc1cc(NCC2CCCO2)cc(=O)n1C` (stereo not given), the cytotoxicity at 70.5 h was -9.63%.

Take `N#CCCn1nc(C(F)(F)F)c2c1CCC2`: the cytotoxicity at 70.5 h was -2.44%.

For `NCCCn1nc(C(F)(F)F)c2c1CCC2`, the cytotoxicity at 70.5 h was -7.21%.

As to `Cn1cc(N)c(-c2nnc3n2CCCC3)n1`, the cytotoxicity at 70.5 h was -0.222%.

Consider `CC(C)c1cc(COCCCC(=O)O)no1`, for which the cytotoxicity at 70.5 h is -2.63%.

With `CCCn1cc2c(C(F)F)cc(SCC(=O)O)nc2n1`, the cytotoxicity at 70.5 h was -8.88%.

In the case of `Cn1nccc1CNC(=O)Cn1nc(C(F)(F)F)cc1C1CC1`, the cytotoxicity at 70.5 h was -10.5%.

For the compound `CC1=C(C#N)C(=O)NC(=O)/C1=C\c1c(C)nn(-c2ccccc2)c1O`, the cytotoxicity at 70.5 h is -2.78%.

For the compound `Cc1c(Br)cc2c(c1C)OCC(N(C)C)C2=O` (stereo not given), the cytotoxicity at 70.5 h came out at 19.9%.

For the compound `CCN(CC)C1COc2c(cc(Br)c(C)c2C)C1=O` (stereo not given), the cytotoxicity at 70.5 h was -6.45%.

For `COc1ccc(N(c2ccc(OC)cc2)c2ccc(C(=O)O)s2)cc1`, the cytotoxicity at 70.5 h is -3.85%.

As for `COc1ccc(-c2nonc2N)cc1`, the cytotoxicity at 70.5 h is -0.886%.

Turning to `O=C1NC(=O)c2c3c(nc(O)c21)CCCC3`, the cytotoxicity at 70.5 h stood at 0.775%.

As for `CCn1nccc1C(=O)NC(Cn1cccn1)C(C)(C)C` (stereo not given), the cytotoxicity at 70.5 h is 2.9%.

Turning to `O=C1CCC(=O)N1c1nn(Cc2ccc(F)cc2)cc1Cl`, the cytotoxicity at 70.5 h stood at 18.7%.

In the case of `CNCc1cc(F)ccc1Oc1ccc(F)cc1F`, the cytotoxicity at 70.5 h was -0.802%.

For `CCn1cc(-c2cc(C(F)F)n3nc(CC(=O)O)nc3n2)cn1`, the cytotoxicity at 70.5 h was 0.375%.

With `NC(=O)CSc1nccc(-c2ccc3c(c2)OCO3)n1`, the cytotoxicity at 70.5 h was -2.27%.

As for `NC1C=C(C(F)(F)F)NC=C1c1ccc(Cl)cc1` (stereo not given), the cytotoxicity at 70.5 h worked out at 3.46%.

On to `Cn1cc(-c2cc(C(F)F)n3nc(CCC(=O)O)nc3n2)cn1`, for which the cytotoxicity at 70.5 h was -4.35%.

Regarding `Cc1cn(Cc2ccccc2)nc1N`, the cytotoxicity at 70.5 h was 2.81%.

Take `Cc1cccc(Cn2cc(C)c(N)n2)c1`: the cytotoxicity at 70.5 h was -1.64%.

For `CS(=O)(=O)N1CCCC(C(=O)Nc2cnn(Cc3ccc(F)cc3)c2)C1` (stereo not given), the cytotoxicity at 70.5 h worked out at 0.36%.

Regarding `CS(=O)(=O)N1CCCC(C(=O)Nc2cnn(COCC(F)(F)F)c2)C1` (stereo not given), the cytotoxicity at 70.5 h came out at 3.12%.

Consider `O=C1CCC(=O)N1c1nn(Cc2ccccc2)cc1Cl`, for which the cytotoxicity at 70.5 h stood at 20.6%.

As for `O=C1CCC(=O)N1c1nn(Cc2ccccc2Cl)cc1Cl`, the cytotoxicity at 70.5 h is -0.484%.

For `CCc1nc(C)cn1C(=O)Nc1ccc(C)cc1`, the cytotoxicity at 70.5 h was -1.55%.

Take `O=C(O)c1cc(-c2cccs2)nc2c(Br)cnn12`: the cytotoxicity at 70.5 h stood at 3.58%.

In the case of `Cn1c(=O)c2cc(C(=O)NCc3ccncc3)ccc2n(C)c1=O`, the cytotoxicity at 70.5 h worked out at 2.17%.

As to `CCn1cc(-c2cc(C(F)(F)F)n(CCCN)n2)cn1`, the cytotoxicity at 70.5 h came to 1.14%.

In the case of `COC(=O)c1ccc(CNCc2cn(C)nc2C)cc1`, the cytotoxicity at 70.5 h was determined as 1.28%.

`Cc1nn(C)cc1CNCc1ccc(N(C)C)cc1`: the cytotoxicity at 70.5 h stood at 1.1%.

For `CCOCCCNC(=O)Cc1cccs1`, the cytotoxicity at 70.5 h was -1.71%.

On to `Cc1cc(-n2cnnn2)n2ncnc2n1`, for which the cytotoxicity at 70.5 h came out at 3.71%.

As to `N#Cc1cc2c(nc1SCc1cc(O)nc(O)n1)CCCCC2`, the cytotoxicity at 70.5 h was -1.03%.

With `Cc1nn(C)cc1-c1cc(C(F)(F)F)c2c(C)nn(CC(=O)O)c2n1`, the cytotoxicity at 70.5 h is 32%.

Consider `COCc1c(C(=O)NC2CCCC2)nnn1-c1ccc(C)cc1`, for which the cytotoxicity at 70.5 h is 22.4%.

Turning to `Cc1ccc(NC(=O)C2=CN=S=N2)cc1`, the cytotoxicity at 70.5 h was determined as 18.8%.

Take `CCCn1ncc2c(C(=O)Nc3cnn(CC)c3C)cc(C3CC3)nc21`: the cytotoxicity at 70.5 h was found to be 5.37%.

As for `CCn1ncc(NC(=O)c2cc(C3CC3)nc3c2c(C)nn3C)c1C`, the cytotoxicity at 70.5 h stood at 35.5%.

Turning to `CNC(=O)c1cccc(C2CNCCN2C(C)=O)c1` (stereo not given), the cytotoxicity at 70.5 h was 14.8%.

With `COc1ccc(-c2nccnc2C2CCN(C(C)=O)CC2)cc1`, the cytotoxicity at 70.5 h was determined as 19.6%.

As for `CNC(=O)[C@@H](c1ccccc1F)N1CCC[C@H]1C(=O)NC1CCOCC1`, the cytotoxicity at 70.5 h is -12.5%.

For the compound `CCNC(=O)[C@@H]1CCCN1C1(C(=O)NC)CCC1`, the cytotoxicity at 70.5 h was -5.11%.

Regarding `CNC(=O)[C@@H](C1CC1)N1CCC[C@H]1C(=O)NCC(C)C`, the cytotoxicity at 70.5 h is -7.95%.

For `CNC(=O)[C@@H](c1ccccc1OC)N1CCC[C@H]1C(=O)N1CCC1`, the cytotoxicity at 70.5 h was -5.76%.
